According to ChEMBL document CHEMBL3621069 (Bioorg Med Chem Lett, 2015):

How the values were obtained:
Salmonella typhimurium [1] = test: Mutagenicity in Salmonella typhimurium TA98 at 5000 µg/plate in presence of liver S9 fraction by Ames test; format: toxicity, organism-based; settings: salmonella enterica subsp. enterica serovar typhimurium
[2] = Oral bioavailability in Sprague-Dawley rat at 10 mg/kg; format: ADME, organism-based; settings: in vivo
Salmonella typhimurium [3] = test: Genotoxicity in Salmonella typhimurium TA1535 at 5000 µg/plate in presence of liver S9 fraction by Ames test; format: toxicity, organism-based; settings: salmonella enterica subsp. enterica serovar typhimurium
Salmonella typhimurium [4] = test: Genotoxicity in Salmonella typhimurium TA98 at 5000 µg/plate in presence of liver S9 fraction by Ames test; format: toxicity, organism-based; settings: salmonella enterica subsp. enterica serovar typhimurium
Salmonella typhimurium [5] = test: Mutagenicity in Salmonella typhimurium TA1537 at 5000 µg/plate in absence of liver S9 fraction by Ames test; format: toxicity, organism-based; settings: salmonella enterica subsp. enterica serovar typhimurium
[6] = Apparent permeability from apical to basolateral side in human Caco2 cells; format: ADME, cell-based; settings: Caco-2
Salmonella typhimurium [7] = test: Genotoxicity in Salmonella typhimurium TA100 at 5000 µg/plate in presence of liver S9 fraction by Ames test; format: toxicity, organism-based; settings: salmonella enterica subsp. enterica serovar typhimurium
Salmonella typhimurium [8] = test: Mutagenicity in Salmonella typhimurium TA1535 at 5000 µg/plate in absence of liver S9 fraction by Ames test; format: toxicity, organism-based; settings: salmonella enterica subsp. enterica serovar typhimurium
[9] = Stability in human liver microsomes; format: ADME; settings: read-out: Stability
Aurora kinase B = Aurora kinase B (Homo sapiens, UniProt Q96GD4); test: Inhibition of Aurora B kinase (unknown origin) pre-incubated for 30 mins at room temperature before substrate addition and measured 1 hr after substrate addition by cell free kinase assay
Salmonella typhimurium [10] = test: Mutagenicity in Salmonella typhimurium TA100 at 5000 µg/plate in absence of liver S9 fraction by Ames test; format: toxicity, organism-based; settings: salmonella enterica subsp. enterica serovar typhimurium
Salmonella typhimurium [11] = test: Genotoxicity in Salmonella typhimurium TA1535 at 5000 µg/plate in absence of liver S9 fraction by Ames test; format: toxicity, organism-based; settings: salmonella enterica subsp. enterica serovar typhimurium
[12] = target: T1, Tyrosine-protein kinase ZAP-70 (Homo sapiens, UniProt P43403); test: Inhibition of purified full-length human ZAP70 pre-incubated for 30 mins at room temperature before UlighTM-PolyGT peptide substrate addition and measured 1 hr after substrate addition by cell free kinase assay
T1 sequence (P43403 whole entry): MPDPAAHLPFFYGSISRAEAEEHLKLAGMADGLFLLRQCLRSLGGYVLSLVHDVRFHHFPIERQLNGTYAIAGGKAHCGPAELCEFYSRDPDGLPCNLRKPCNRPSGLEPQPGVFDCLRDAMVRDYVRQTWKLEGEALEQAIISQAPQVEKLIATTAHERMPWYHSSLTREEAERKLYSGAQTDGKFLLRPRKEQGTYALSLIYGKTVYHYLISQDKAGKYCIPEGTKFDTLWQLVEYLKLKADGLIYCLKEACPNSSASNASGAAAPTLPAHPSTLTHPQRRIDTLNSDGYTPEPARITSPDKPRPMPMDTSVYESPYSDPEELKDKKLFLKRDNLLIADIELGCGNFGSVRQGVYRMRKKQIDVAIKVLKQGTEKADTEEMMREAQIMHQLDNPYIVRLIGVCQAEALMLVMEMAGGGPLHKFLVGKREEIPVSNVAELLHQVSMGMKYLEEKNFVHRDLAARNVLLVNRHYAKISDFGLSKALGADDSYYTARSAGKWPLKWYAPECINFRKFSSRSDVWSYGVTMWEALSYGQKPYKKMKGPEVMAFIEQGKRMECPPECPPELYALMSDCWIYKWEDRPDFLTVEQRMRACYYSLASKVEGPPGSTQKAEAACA

Salmonella typhimurium [13] = test: Genotoxicity in Salmonella typhimurium TA1537 at 5000 µg/plate in absence of liver S9 fraction by Ames test; format: toxicity, organism-based; settings: salmonella enterica subsp. enterica serovar typhimurium
Plasma = test: Unbound fraction in human plasma; format: ADME, cell-free
Salmonella typhimurium [14] = test: Mutagenicity in Salmonella typhimurium TA98 at 5000 µg/plate in absence of liver S9 fraction by Ames test; format: toxicity, organism-based; settings: salmonella enterica subsp. enterica serovar typhimurium
Escherichia coli [15] = test: Genotoxicity in Escherichia coli WP2 uvrA at 5000 µg/plate in presence of liver S9 fraction by Ames test; format: toxicity, organism-based
Salmonella typhimurium [16] = test: Mutagenicity in Salmonella typhimurium TA100 at 5000 µg/plate in presence of liver S9 fraction by Ames test; format: toxicity, organism-based; settings: salmonella enterica subsp. enterica serovar typhimurium
[17] = Inhibition of CYP450 (unknown origin); format: ADME, Homo sapiens
Salmonella typhimurium [18] = test: Genotoxicity in Salmonella typhimurium TA1537 at 5000 µg/plate in presence of liver S9 fraction by Ames test; format: toxicity, organism-based; settings: salmonella enterica subsp. enterica serovar typhimurium
Salmonella typhimurium [19] = test: Genotoxicity in Salmonella typhimurium TA98 at 5000 µg/plate in absence of liver S9 fraction by Ames test; format: toxicity, organism-based; settings: salmonella enterica subsp. enterica serovar typhimurium
Escherichia coli [20] = test: Mutagenicity in Escherichia coli WP2 uvrA at 5000 µg/plate in absence of liver S9 fraction by Ames test; format: toxicity, organism-based
[21] = Terminal half life in Sprague-Dawley rat at 10 mg/kg, po; format: ADME, organism-based; settings: in vivo, read-out: beta t1/2 (converted)
[22] = Clearance in Sprague-Dawley rat at 10 mg/kg, po; format: ADME, organism-based; settings: in vivo
Escherichia coli [23] = test: Genotoxicity in Escherichia coli WP2 uvrA at 5000 µg/plate in absence of liver S9 fraction by Ames test; format: toxicity, organism-based
Salmonella typhimurium [24] = test: Mutagenicity in Salmonella typhimurium TA1535 at 5000 µg/plate in presence of liver S9 fraction by Ames test; format: toxicity, organism-based; settings: salmonella enterica subsp. enterica serovar typhimurium
[25] = AUClast in Sprague-Dawley rat at 10 mg/kg; format: ADME, organism-based; set-up: dose 10 mg/kg, time 0 - last; settings: in vivo

Sequence of Aurora kinase B (Q96GD4 whole entry): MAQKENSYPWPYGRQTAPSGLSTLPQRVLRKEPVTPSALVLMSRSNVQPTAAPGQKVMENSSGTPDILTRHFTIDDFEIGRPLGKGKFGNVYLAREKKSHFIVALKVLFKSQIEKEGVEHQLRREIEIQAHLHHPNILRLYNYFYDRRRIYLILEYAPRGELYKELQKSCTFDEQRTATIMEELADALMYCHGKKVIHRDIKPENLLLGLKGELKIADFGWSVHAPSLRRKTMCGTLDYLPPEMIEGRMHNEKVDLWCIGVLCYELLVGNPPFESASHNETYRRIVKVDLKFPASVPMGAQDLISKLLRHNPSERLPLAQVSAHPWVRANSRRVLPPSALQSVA

bioavailability [2] [%] | Papp A→B [6] [×10⁻⁶ cm/s] | half-life [9] [h] | IC50 (Aurora kinase B) [µM] | IC50 [12] [µM] | Fu (Plasma) [%] | IC50 [17] [µM] | Structure (SMILES) | Activity (Salmonella typhimurium [1]) | Activity (Salmonella typhimurium [3]) | Activity (Salmonella typhimurium [4]) | Activity (Salmonella typhimurium [5]) | Activity (Salmonella typhimurium [7]) | Activity (Salmonella typhimurium [8]) | Activity (Salmonella typhimurium [10]) | Activity (Salmonella typhimurium [11]) | Activity (Salmonella typhimurium [13]) | Activity (Salmonella typhimurium [14]) | Activity (Escherichia coli [15]) | Activity (Salmonella typhimurium [16]) | Activity (Salmonella typhimurium [18]) | also measured
28.4 | 2.7 | > 1 | 1.71 | 53.8 | < 0.4 | > 10 | Cc1nn(-c2ccnc(Nc3ccc4c(c3)c(Cl)c(C)n4C)n2)cc1CN1CC(O)C1 | Non-toxic | Non-toxic | Non-toxic | Non-toxic | Non-toxic | Non-toxic | Non-toxic | Non-toxic | Non-toxic | Non-toxic | Non-toxic | Non-toxic | Non-toxic | Activity (Salmonella typhimurium [19]): Non-toxic; Activity (Escherichia coli [20]): Non-toxic; half-life [21]: 3.6 h; CL/F [22]: 26 mL/min/kg; Activity (Escherichia coli [23]): Non-toxic; Activity (Salmonella typhimurium [24]): Non-toxic; AUC(0-t) [25]: 3230 ng·h/mL
61 | 6.2 | > 1 | 0.985 | 996 | < 0.4 | > 10 | Cc1nn(-c2ccnc(Nc3ccc4c(c3)c(C)c(C)n4C)n2)cc1CN1CC(O)C1 | Non-toxic | Non-toxic | Non-toxic | Non-toxic | Non-toxic | Non-toxic | Non-toxic | Non-toxic | Non-toxic | Non-toxic | Non-toxic | Non-toxic | Non-toxic | Activity (Salmonella typhimurium [19]): Non-toxic; Activity (Escherichia coli [20]): Non-toxic; half-life [21]: 3.4 h; CL/F [22]: 21 mL/min/kg; Activity (Escherichia coli [23]): Non-toxic; Activity (Salmonella typhimurium [24]): Non-toxic; AUC(0-t) [25]: 4000 ng·h/mL
